From patent US6359144B1, “Combinatorial libraries of bicyclic guanidine derivatives and compounds therein” (Lion Bioscience AG, priority 1997, dated 2002)
Read-outs that look alike come from different tables or passages of the source.

Columns and labels:
σ receptor = target: T1, σ receptor (Rattus norvegicus, UniProt Q9R0C9); experiment: σ receptor radio-receptor binding assay
T1 construct: can be performed with particulate membranes prepared using a modification of the method described in Pasternak et al; tissue Rockland (Gilbertsville, Pa.); host or cells: rat brain minus cerebellum, crude particulate membranes
From the text: Additionally, such compounds can be tested in a σ receptor assay. Ligands for the σ receptor can be useful as antipsychotic agents, as described in Abou-Gharbia et al., Annual Reports in Medicinal Chemistry, 28:1-10 (1993).
Radio-receptor assays, such as those whose results are shown in Examples IV, V and VI, below, can be performed with particulate membranes prepared using a modification of the method described in Pasternak et al., Mol. Pharmacol. 11:340-351 (1975), which is incorporated herein by reference. Rat brains frozen in liquid nitrogen can be obtained from Rockland (Gilbertsville, Pa.). The brains are thawed, the cerebella removed and the remaining tissue weighed. Each brain is individually homogenized in 40 ml Tris-HCl buffer (50 mM, pH 7.4, 4° C.) and centrifuged (Sorvall® RC5C SA-600: Du Pont, Wilmington, Del.) (16,000 rpm) for 10 minutes. The pellets are resuspended in fresh Tris-HCl buffer and incubated at 37° C. for 40 minutes. Following incubation, the suspensions are centrifuged as before, the resulting pellets resuspended in 100 volumes of Tris buffer and the suspensions combined. Membrane suspensions are prepared and used in the same day.
Binding assays are carried out in polypropylene tubes, each tube containing 0.5 ml of membrane suspension. 8 nM of ^3H-[D-Ala^2,Me-Phe^4,Gly-ol^5]enkephalin (DAMGO) (specific activity=36 Ci/mmol, 160,000 cpm per tube; which can be obtained from Multiple Peptide Systems, San Diego, Calif., through NIDA drug distribution program 271-90-7302) and 80 μg/ml of bicyclic guanidine, individual or as a mixture and Tris-HCl buffer in a total volume of 0.65 ml. Assay tubes are incubated for 60 mins. at 25° C. The reaction is terminated by filtration through GF-B filters on a Tomtec harvester (Orange, Conn.). The filters are subsequently washed with 6 ml of Tris-HCl buffer, 4° C. Bound radioactivity is counted on a Pharmacia Biotech Betaplate Liquid Scintillation Counter (Piscataway, N.J.) and expressed in cpm. To determine inter- and intra-assay variation, standard curves in which ^3H-DAMGO is incubated in the presence of a range of concentrations of unlabeled DAMGO (0.13-3900 nM) are generally included in each plate of each assay (a 96-well format). Competitive inhibition assays are performed as above using serial dilutions of the bicyclic guanidines, individually or in mixtures.
As opposed to this μ receptor selective assay, which can be carried out using ^3H-DAMGO as radioligand, as described above, assays selective for κ receptors can be carried out using [^3H]-U69,593 (3 nM, specific activity 62 Ci/mmol) as radioligand. Assays selective for δ opiate receptors can be carried out using tritiated DSLET ([D-Ser^2, D-Leu^5]-threonine-enkephalin) as radioligand. Assays selective for the σ opiate receptor can use radiolabeled pentazocine as ligand.

κ-opioid receptor = target: T2, κ-opioid receptor (Rattus norvegicus, UniProt P34975); experiment: κ-opioid receptor radio-receptor binding assay ([3H]-U69,593); conditions: Table 9
T2 construct: can be performed with particulate membranes prepared using a modification of the method described in Pasternak et al; tissue Rockland (Gilbertsville, Pa.); host or cells: rat brain minus cerebellum, crude particulate membranes

[1] = 17 additional individual compounds, Table 11
[2] = 24 individual compounds, Table 10
[3] = 24 individual compounds, read-out: IC50

T1 sequence (Q9R0C9 whole entry): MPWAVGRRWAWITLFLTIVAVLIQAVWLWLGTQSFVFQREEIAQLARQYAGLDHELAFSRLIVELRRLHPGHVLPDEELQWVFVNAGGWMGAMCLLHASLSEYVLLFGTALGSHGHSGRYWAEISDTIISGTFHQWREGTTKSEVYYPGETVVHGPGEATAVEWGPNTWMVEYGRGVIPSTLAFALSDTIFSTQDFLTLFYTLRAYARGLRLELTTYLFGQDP
T2 sequence (P34975 whole entry): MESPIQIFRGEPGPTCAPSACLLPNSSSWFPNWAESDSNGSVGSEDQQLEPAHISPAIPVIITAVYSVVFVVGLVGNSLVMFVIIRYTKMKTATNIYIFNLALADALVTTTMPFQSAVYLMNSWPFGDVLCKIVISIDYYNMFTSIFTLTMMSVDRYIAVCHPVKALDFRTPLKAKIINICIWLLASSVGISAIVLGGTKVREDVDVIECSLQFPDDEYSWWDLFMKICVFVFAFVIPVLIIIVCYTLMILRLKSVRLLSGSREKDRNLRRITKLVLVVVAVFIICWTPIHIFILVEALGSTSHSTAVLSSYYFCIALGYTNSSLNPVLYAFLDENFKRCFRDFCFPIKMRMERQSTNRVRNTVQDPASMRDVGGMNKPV

**Q.** For `CCCC[C@H]1CN=C2N(CC)[C@@H](Cc3ccccc3)CN21` [Nle/Phe/acetic acid], which IC50 (σ receptor; [1]) is on record?
**A.** The IC50 was 214 nM.

**Q.** How did the IC50 (σ receptor; [1]) turn out when `CCN1C2=NCC(Cc3ccccc3)N2CC1CC1CCCCC1` (stereo not drawn) [Phe/Cha/acetic acid] was run?
**A.** Its IC50 is 52 nM.

**Q.** `CC(C)(C)CCN1C2=NC[C@H](Cc3ccccc3)N2C[C@@H]1Cc1ccccc1` [Phe/Phe/(tert-butyl)acetic acid] was tested. Which IC50 (σ receptor; [1]) did it give?
**A.** The IC50 was 112 nM.

**Q.** How did the IC50 (σ receptor; [1]) turn out when `CC(C)CCN1C2=NC[C@H](Cc3ccccc3)N2C[C@@H]1Cc1ccccc1` [Phe/Phe/isovaleric acid] was run?
**A.** Its IC50 is 156 nM.

**Q.** `CCN1C2=NC[C@H](Cc3ccccc3)N2C[C@@H]1Cc1ccc(OC)cc1` [Phe/Tyr(Me)/acetic acid] was tested. Which IC50 (σ receptor; [1]) did it give?
**A.** The IC50 was 69 nM.

**Q.** `CCN1C2=NC[C@H](Cc3ccccc3)N2C[C@H]1C1CCCCC1` [Phe/chg/acetic acid] was tested. Which IC50 (σ receptor; [1]) did it give?
**A.** The IC50 was 119 nM.

**Q.** How did the IC50 (σ receptor; [1]) turn out when `CCN1C2=NCC(Cc3ccccc3)N2CC1Cc1ccc(Cl)cc1` (stereo not drawn) [Phe/pCl-Phe/acetic acid] was run?
**A.** Its IC50 is 60 nM.

**Q.** For `CCN1C2=NC[C@H](Cc3ccccc3)N2C[C@H]1Cc1ccc(Cl)cc1` [Phe/pCl-phe/acetic acid], which IC50 (σ receptor; [1]) is on record?
**A.** The IC50 was 127 nM.

**Q.** For `CCN1C2=NC[C@H](Cc3ccccc3)N2C[C@@H]1Cc1ccc(F)cc1` [Phe/pF-Phe/acetic acid], which IC50 (σ receptor; [1]) is on record?
**A.** The IC50 was 215 nM.

**Q.** For `CCN1C2=NC[C@H](Cc3ccccc3)N2C[C@H]1Cc1ccc(F)cc1` [Phe/pF-phe/acetic acid], which IC50 (σ receptor; [1]) is on record?
**A.** Its IC50 is 242 nM.

**Q.** With `CCN1C2=NC[C@H](Cc3ccccc3)N2C[C@@H]1Cc1ccc(I)cc1` [Phe/pI-Phe/acetic acid] as the compound, how does the IC50 (σ receptor; [1]) read?
**A.** The IC50 was 65 nM.

**Q.** How did the IC50 (σ receptor; [2]) turn out when `COc1ccc(C[C@H]2CN3C(=NC[C@H]3C3CCCCC3)N2CCCC2CCCCC2)cc1` [compound 2] was run?
**A.** The IC50 was 585 nM.

**Q.** For `COc1ccc(C[C@H]2CN3C(=NC[C@@H]3C3CCCCC3)N2CCCC2CCCCC2)cc1` [compound 3], which IC50 (σ receptor; [2]) is on record?
**A.** Its IC50 is 23 nM.

**Q.** `COc1ccc(C[C@H]2CN3C(=NC[C@@H]3C)N2CCCC2CCCCC2)cc1` [compound 4] was tested. Which IC50 (σ receptor; [2]) did it give?
**A.** Its IC50 is 52 nM.

**Q.** Which IC50 (σ receptor; [2]) does the source give for `CC(C)C[C@@H]1CN2C(=NC[C@@H]2C)N1CCCC1CCCCC1` [compound 7] here?
**A.** The IC50 was 530 nM.

**Q.** And the IC50 (κ-opioid receptor; [3])?
**A.** The IC50 was 5440 nM.

**Q.** For `CC(C)C[C@@H]1CN2C(=NC[C@@H]2C2CCCCC2)N1CCCC1CCCCC1` [compound 9], which IC50 (σ receptor; [2]) is on record?
**A.** The IC50 was 13 nM.

**Q.** What about the IC50 (κ-opioid receptor; [3]) of the same compound?
**A.** Its IC50 is 3740 nM.

**Q.** How did the IC50 (σ receptor; [2]) turn out when `C1CCC(CCCN2C3=NC[C@@H](C4CCCCC4)N3C[C@@H]2C2CCCCC2)CC1` [compound 11] was run?
**A.** The IC50 was 405 nM.

**Q.** Which IC50 (σ receptor; [2]) does the source give for `C1CCC(CCCN2C3=NC[C@H](C4CCCCC4)N3C[C@@H]2C2CCCCC2)CC1` [compound 12] here?
**A.** Its IC50 is 210 nM.

**Q.** Which IC50 (σ receptor; [2]) does the source give for `COc1ccc(CC2CN3C(=NCC3C)N2CCC23CC4CC(CC(C4)C2)C3)cc1` (stereo not drawn) [compound 13] here?
**A.** Its IC50 is 235 nM.

**Q.** And the IC50 (κ-opioid receptor; IC50, 24 individual compounds)?
**A.** The IC50 was 1520 nM.

**Q.** For `COc1ccc(CC2CN3C(=NCC3C3CCCCC3)N2CCC23CC4CC(CC(C4)C2)C3)cc1` (stereo not drawn) [compound 15], which IC50 (σ receptor; [2]) is on record?
**A.** Its IC50 is 256 nM.

**Q.** What about the IC50 (κ-opioid receptor; IC50, 24 individual compounds) of the same compound?
**A.** The IC50 was 4920 nM.

**Q.** With `COc1ccc(CC2CN3C(=NCC3C)N2CCC23CC4CC(CC(C4)C2)C3)cc1` (stereo not drawn) [compound 16] as the compound, how does the IC50 (σ receptor; [2]) read?
**A.** Its IC50 is 1080 nM.

**Q.** And the IC50 (κ-opioid receptor; IC50, 24 individual compounds)?
**A.** The IC50 was 238 nM.

**Q.** With `CC(C)CC1CN2C(=NCC2C)N1CCC12CC3CC(CC(C3)C1)C2` (stereo not drawn) [compound 19] as the compound, how does the IC50 (σ receptor; [2]) read?
**A.** The IC50 was 974 nM.

**Q.** What about the IC50 (κ-opioid receptor; IC50, 24 individual compounds) of the same compound?
**A.** The IC50 was 3640 nM.

**Q.** Which IC50 (σ receptor; [2]) does the source give for `CC(C)CC1CN2C(=NCC2C2CCCCC2)N1CCC12CC3CC(CC(C3)C1)C2` (stereo not drawn) [compound 21] here?
**A.** The IC50 was 124 nM.

**Q.** And the IC50 (κ-opioid receptor; IC50, 24 individual compounds)?
**A.** Its IC50 is 1210 nM.
